# Patent US9315522B2, “Antibacterial compounds” (JANSSEN SCIENCES IRELAND UC, priority 2012, dated 2016)
# Assays:
# [1] = test system: Staphylococcus aureus ATCC 29213; assay: Antibacterial susceptibility testing, IC90 determination (STA); assay type: cell-based; conditions: Staphylococcus aureus, ATCC29213, Staphylococcus aureus ATCC 29213, broth microdilution, resazurin; read-out: STA (361.159) IC90
# Outline: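 S. aureus ATCC 29213 tested by broth microdilution in Mueller-Hinton broth, 5×10^5 CFU/ml, two-fold compound dilutions typically 63 to 0.49 μM, 1.25% DMSO, 16-20 h at 35° C. Growth read fluorometrically with resazurin (ex 540/em 590 nm); IC90 in μg/ml is 90% growth-inhibitory concentration.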
# [2] = test system: S. aureus strain ATCC 29213; assay: In vivo efficacy, peritonitis model of S. aureus infection; conditions: female Swiss albino mice, IP infection, inoculum 8.9 log10, PO, QD, Sol 20% CD + 1HCl, 3 days post-infection
# From the text: The concept of studying the in vivo effect of an antibacterial compound by treating intraperitoneally infected mice was introduced in 1911 for optochin against pneumococci (Morgenroth and Levy, 1911). The popularity of the model comes from the ease of its use with short-duration experiments, reproducible infections and simple end-points.
# Methicillin-sensitive S. aureus strain ATCC 29213 was used to infect female Swiss albino mice. A Brain Heart Infusion (BHI) broth bacterial culture was inoculated the day before infection, incubated at 37° C. overnight and diluted in fresh BHI broth to the desired concentration. Intraperitoneal (i.p.) injection of ˜5×10^9 colony forming units (CFU) was performed in either of the lateral lower quadrants of the abdomen. After inoculation, mice were kept in their cages under daily observation for development of signs of infection or death. For the treatment of mice, the p.o. route was used and each mouse was treated individually by gavage. Example of Cpd No. 48 was formulated as a 20% HP-β-cyclodextrin and example of Cpd No. 38 was formulated as a water/Tween-20 suspension. The parameter used for monitoring the course of infection and the effect of treatment was death or survival of the animals over 3 days post-infection. As death could also be due to toxic side effects, a non-infected control group of 3 mice, treated with the highest dose of the compound tested, was included.
# [3] = Cytotoxicity MTT assay (HELAM); assay type: cell-based, Human; conditions: human, HelaM cells, read-out: HELAM (222.125) CC50
# Outline: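 HelaM cells exposed 72 h at 37° C to serial dilutions, typically 25 to 0.8 μM, in 0.5% DMSO. MTT formazan dissolved in 2-propanol, absorbance at 540 nm minus 690 nm; CC50 is concentration halving viability.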
# [4] = molecular target: T1, S. aureus ATCC 29213 FabI (Staphylococcus aureus, UniProt Q6GI75); assay: Staphylococcus aureus FabI enzyme inhibition assay; assay type: biochemical; conditions: read-out: FabI (300.235) IC50 (converted)
# T1 sequence (Q6GI75 1-256): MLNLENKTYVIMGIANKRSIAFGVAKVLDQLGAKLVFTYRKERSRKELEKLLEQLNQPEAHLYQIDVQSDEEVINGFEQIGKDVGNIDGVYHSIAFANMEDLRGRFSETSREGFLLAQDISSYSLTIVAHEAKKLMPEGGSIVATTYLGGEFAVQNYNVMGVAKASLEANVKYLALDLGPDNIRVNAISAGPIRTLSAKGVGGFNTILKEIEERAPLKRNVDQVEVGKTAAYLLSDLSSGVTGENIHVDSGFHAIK
# Outline: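 S. aureus ATCC 29213 FabI (50 μg/ml) with 250 μM crotonoyl-CoA and 625 μM NADH in 100 mM NaADA pH 6.5, inhibitor 50–0.39 μM, 30 min at room temperature. Stopped by Tris pH 9.0 shift; NADH at 340 nm versus no-compound and no-enzyme controls; IC50 in μg/ml.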
compound,measurement,setting,value
O=C1CNCc2cc(/C=C/C(=O)N3CC4C=C(c5nccs5)CC4C3)cnc2N1 (centres unmarked) [compound 48],IC90,[1],0.24 µg/mL
same,% Survival,[2]; 1 mpk,57%
same,% Survival,[2]; 5 mpk,100%
same,CC50 at 72 h,[3],> 10.2 µg/mL
same,IC50,[4],~663 nM
